Data from patent publication US20220339248A1, “METHODS FOR TREATING NEOINTIMAL HYPERLASIA USING F11R/JAM-A INHIBITORS” (THE RESEARCH FOUNDATION FOR THE STATE UNIVERSITY OF NEW YORK, priority 2019, published 2022).
Entries after “also recorded” stand apart in the source; their conditions may differ. Non-standard residues stand in square brackets, D forms with d.

Columns and labels:
F11R = target: T1, F11R (Homo sapiens, UniProt Q9Y624); settings: statement in words; activity described in Babinska et al. and U.S. Pat. Nos. 9,556,235 and 8,557,957; cited from earlier work
T1 sequence (Q9Y624 28-299): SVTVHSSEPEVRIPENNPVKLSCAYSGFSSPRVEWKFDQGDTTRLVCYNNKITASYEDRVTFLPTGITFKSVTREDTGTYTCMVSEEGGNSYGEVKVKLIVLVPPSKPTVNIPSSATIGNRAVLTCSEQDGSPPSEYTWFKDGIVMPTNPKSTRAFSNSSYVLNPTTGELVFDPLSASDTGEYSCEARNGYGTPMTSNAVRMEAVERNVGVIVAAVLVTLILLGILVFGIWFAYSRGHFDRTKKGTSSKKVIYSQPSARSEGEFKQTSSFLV

uremic C57BL/6 mice = test: Carotid artery partial ligation (focal LCA stenosis) model of neointimal hyperplasia in 5/6 nephrectomized uremic mice; assay type: in vivo, mouse; settings: for mean Intima Index (intima area/intima+media area) from 1 LCA location with biggest focal stenosis: FIG. 7, control 0.47±0.15, U-Mann Whitney p=0.039
Experimental: Carotid artery ligation was performed on 14 uremic C57BL/6 mice that underwent 5/6 nephrectomy. One week after nephrectomy, partial ligation of the left carotid artery (LCA) was performed on each mouse. Focal LCA stenosis was created by placing 9-0 nylon suture at 1 mm proximal to the carotid bifurcation (mid-focal stenosis) around the artery using a 35-gauge blunt needle (World precision Instruments, Inc., Sarasota, Fla.). Then the needle mandrel was gently removed to restore blood flow.
Mice were fed a regular mouse diet and divided into 2 groups of 7 mice each; the experimental group received Peptide 4D while the Control group received saline injections by intraperitoneal route for 21 days, as this was the time shown in earlier studies to correlate with development of neointimal hyperplasia following partial ligation of the carotid artery.
The mice were then euthanized on day 21 and both LCA and right carotid artery (RCA) were excised for analysis. Specimens were embedded in paraffin. Serial sections (6 μm thick) were collected at 200-μm intervals of the LCA from mid-focal stenosis as well as from the RCA serving as lesion control. Data were analyzed qualitatively and quantitatively using Image J software. The two groups were compared for differences in mean Intima Area and Intima Index, defined as the ratio of intima area divided by intima plus media area.

For “KSVTREDTGTYTC (Laboratory synthesized sequence) [SEQ ID NO: 2]”, the “inhibition of the biological activities of F11R” value (F11R) is listed as “inhibitor of the biological activities of F11R”.

With “NH2-(dK)-SVT-(dR)-EDTGTYTC-CONH2 (H-[dK]SVT[dR]EDTGTYTC-NH2; SMILES CC(C)[C@H](NC(=O)[C@H](CO)NC(=O)[C@H](N)CCCCN)C(=O)N[C@H](C(=O)N[C@H](CCCNC(=N)N)C(=O)N[C@@H](CCC(=O)O)C(=O)N[C@@H](CC(=O)O)C(=O)N[C@H](C(=O)NCC(=O)N[C@H](C(=O)N[C@@H](Cc1ccc(O)cc1)C(=O)N[C@H](C(=O)N[C@@H](CS)C(N)=O)[C@@H](C)O)[C@@H](C)O)[C@@H](C)O)[C@@H](C)O) [Peptide 4D]” the “mean Intima Index (intima area/intima+media area) from 10 LCA locations” value (uremic C57BL/6 mice; FIG. 6, 21 days, n=7, control 0.27±0.13, U-Mann Whitney p=0.0079) was “significantly less”, the “mean Intima Index (intima area/intima+media area) from 1 LCA location with biggest focal stenosis” value (uremic C57BL/6 mice; 21 days, n=7) was “significantly less” and the “mean Intima Index (intima area/intima+media area) from 1 LCA location with biggest focal stenosis” value (uremic C57BL/6 mice; 21 days, n=7, listed as peptide 4D) was 0.31±0.14. For the same substance, the “intima area relative to distance from the ligation point (mid focal stenosis morphometry)” value (uremic C57BL/6 mice; FIGS. 3A-3B, 4, LCA, 21 days, versus saline control, n=7) was “significantly smaller; also recorded: significantly decreased intima area”, the “effect on neointimal hyperplasia” value (uremic C57BL/6 mice; carotid ligation model, 21 days, versus saline control) was “significantly inhibits neointimal hyperplasia” and the “number of mice whose LCA had severe neointimal hyperplasia” value (uremic C57BL/6 mice; of 7 experimental mice, all control LCA severe, two with complete luminal occlusion) was “one”.

In the case of “SSEPEVRIPENNPV (Laboratory synthesized sequence) [SEQ ID NO: 16]”, the “inhibition of the biological activities of F11R” value (F11R) is listed as “inhibitor of the biological activities of F11R”.

For “SVTVHSSEPEVRIPENNPVKLSC (SVTVHSSEPEVXIPENNPVKLSC; Laboratory synthesized sequence; (12)..(12) Xaa can be any naturally occurring amino acid) [SEQ ID NO: 11, 23-amino acid N-terminal peptide of F11R/JAM-A]”, the “inhibition of the biological activities of F11R” value (F11R) is given as “inhibitor of the biological activities of F11R”.
